Legend:
Test in all cases: relative viability vs DMSO control (72 h) (fraction); higher = more viable cells
[1] = system: A204
Summary of the method: (§1)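 Relative viability was measured with ATPLite and expressed as percent growth, averaged across up to triplicate wells. Sarcoma cell lines had been seeded in 384-well plates to reach 80–90% confluence, dosed after 24 h, and incubated 72 h at 37 °C, 5% CO2. All data were rescaled on a scale where 1 is full and 0 is none.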

[2] = system: G401
Summary of the method: as §1

[3] = system: HS729
Summary of the method: as §1

[4] = system: HT1080
Summary of the method: as §1

[5] = system: KHOS-NP
Summary of the method: as §1

[6] = system: RD-ES
Summary of the method: as §1

[7] = system: SK-ES-1
Summary of the method: as §1

[8] = system: SK-LMS-1
Summary of the method: as §1

[9] = system: SW684
Summary of the method: as §1

[10] = system: SW872
Summary of the method: as §1

[11] = system: SW982
Summary of the method: as §1

[12] = system: VA-ES-BJ
Summary of the method: as §1

CCc1cnn2c(NCc3ccc[n+]([O-])c3)cc(N3CCCC[C@H]3CCO)nc12 [Dinaciclib]
Details	relative viability
[1], 0.00017 µM	0.998
[1], 0.00051 µM	1.02
[1], 0.00152 µM	0.9831
[1], 0.00457 µM	0.913
[1], 0.01372 µM	0.482
[1], 0.04115 µM	0.247
[1], 0.1235 µM	0.235
[1], 0.3704 µM	0.199
[1], 1.111 µM	0.187
[1], 3.333 µM	0.179
[1], 10 µM	0.18
[2], 0.00017 µM	0.997
[2], 0.00051 µM	0.974
[2], 0.00152 µM	0.989
[2], 0.00457 µM	0.915
[2], 0.01372 µM	0.46
[2], 0.04115 µM	0.089
[2], 0.1235 µM	0.0853
[2], 0.3704 µM	0.0974
[2], 1.111 µM	0.0916
[2], 3.333 µM	0.0843
[2], 10 µM	0.072
[3], 0.00017 µM	1.05
[3], 0.00051 µM	1.08
[3], 0.00152 µM	1.09
[3], 0.00457 µM	1.06
[3], 0.01372 µM	1.03
[3], 0.04115 µM	0.396
[3], 0.1235 µM	0.378
[3], 0.3704 µM	0.397
[3], 1.111 µM	0.386
[3], 3.333 µM	0.371
[3], 10 µM	0.332
[4], 0.00017 µM	1.04
[4], 0.00051 µM	1.04
[4], 0.00152 µM	1.04
[4], 0.00457 µM	1.09
[4], 0.01372 µM	0.792
[4], 0.04115 µM	0.193
[4], 0.1235 µM	0.208
[4], 0.3704 µM	0.209
[4], 1.111 µM	0.202
[4], 3.333 µM	0.216
[4], 10 µM	0.219
[5], 0.00017 µM	1.03
[5], 0.00051 µM	1.05
[5], 0.00152 µM	1.06
[5], 0.00457 µM	1.07
[5], 0.01372 µM	0.836
[5], 0.04115 µM	0.183
[5], 0.1235 µM	0.153
[5], 0.3704 µM	0.163
[5], 1.111 µM	0.164
[5], 3.333 µM	0.162
[5], 10 µM	0.137
[6], 0.00017 µM	0.937
[6], 0.00051 µM	0.916
[6], 0.00152 µM	0.912
[6], 0.00457 µM	0.886
[6], 0.01372 µM	0.612
[6], 0.04115 µM	0.0429
[6], 0.1235 µM	0.0102
[6], 0.3704 µM	0.00417
[6], 1.111 µM	0.0013
[6], 3.333 µM	-0.0014
[6], 10 µM	-0.00263
[7], 0.00017 µM	0.939
[7], 0.00051 µM	1
[7], 0.00152 µM	0.939
[7], 0.00457 µM	0.79
[7], 0.01372 µM	0.411
[7], 0.04115 µM	0.0163
[7], 0.1235 µM	0.0154
[7], 0.3704 µM	0.00863
[7], 1.111 µM	0.00557
[7], 3.333 µM	0.000967
[7], 10 µM	-0.000867
[8], 0.00017 µM	1.06
[8], 0.00051 µM	1.05
[8], 0.00152 µM	1.07
[8], 0.00457 µM	1.03
[8], 0.01372 µM	0.817
[8], 0.04115 µM	0.325
[8], 0.1235 µM	0.309
[8], 0.3704 µM	0.333
[8], 1.111 µM	0.341
[8], 3.333 µM	0.34
[8], 10 µM	0.353
[9], 0.00017 µM	0.96
[9], 0.00051 µM	1.01
[9], 0.00152 µM	1.02
[9], 0.00457 µM	0.964
[9], 0.01372 µM	0.669
[9], 0.04115 µM	0.713
[9], 0.1235 µM	0.71
[9], 0.3704 µM	0.713
[9], 1.111 µM	0.689
[9], 3.333 µM	0.7
[9], 10 µM	0.71
[10], 0.00017 µM	1.01
[10], 0.00051 µM	1.01
[10], 0.00152 µM	1.01
[10], 0.00457 µM	1.03
[10], 0.01372 µM	0.947
[10], 0.04115 µM	0.412
[10], 0.1235 µM	0.279
[10], 0.3704 µM	0.268
[10], 1.111 µM	0.259
[10], 3.333 µM	0.256
[10], 10 µM	0.245
[11], 0.00017 µM	0.9568
[11], 0.00051 µM	0.98
[11], 0.00152 µM	0.984
[11], 0.00457 µM	0.962
[11], 0.01372 µM	0.566
[11], 0.04115 µM	0.223
[11], 0.1235 µM	0.239
[11], 0.3704 µM	0.269
[11], 1.111 µM	0.267
[11], 3.333 µM	0.25
[11], 10 µM	0.227
[12], 0.00017 µM	0.994
[12], 0.00051 µM	1.011
[12], 0.00152 µM	1.03
[12], 0.00457 µM	0.94
[12], 0.01372 µM	0.269
[12], 0.04115 µM	0.222
[12], 0.1235 µM	0.227
[12], 0.3704 µM	0.255
[12], 1.111 µM	0.245
[12], 3.333 µM	0.253
[12], 10 µM	0.247

CC#CC(=O)N1CCC[C@H]1c1nc(-c2ccc(C(=O)Nc3ccccn3)cc2)c2c(N)nccn12 [Acalabrutinib]
Details	relative viability
[1], 0.00017 µM	1.07
[1], 0.00051 µM	1.07
[1], 0.00152 µM	1.06
[1], 0.00457 µM	1.09
[1], 0.01372 µM	1.1
[1], 0.04115 µM	1.09
[1], 0.1235 µM	1.07
[1], 0.3704 µM	1.05
[1], 1.111 µM	1.05
[1], 3.333 µM	1.02
[1], 10 µM	0.872
[2], 0.00017 µM	0.98
[2], 0.00051 µM	0.991
[2], 0.00152 µM	0.997
[2], 0.00457 µM	1.02
[2], 0.01372 µM	1.01
[2], 0.04115 µM	1.01
[2], 0.1235 µM	0.985
[2], 0.3704 µM	0.996
[2], 1.111 µM	1.02
[2], 3.333 µM	0.997
[2], 10 µM	0.917
[3], 0.00017 µM	0.88
[3], 0.00051 µM	0.865
[3], 0.00152 µM	0.903
[3], 0.00457 µM	0.941
[3], 0.01372 µM	0.866
[3], 0.04115 µM	0.877
[3], 0.1235 µM	0.894
[3], 0.3704 µM	0.868
[3], 1.111 µM	0.889
[3], 3.333 µM	0.88
[3], 10 µM	0.95
[4], 0.00017 µM	1.03
[4], 0.00051 µM	1.05
[4], 0.00152 µM	1.05
[4], 0.00457 µM	1.036
[4], 0.01372 µM	1.01
[4], 0.04115 µM	1.029
[4], 0.1235 µM	1.04
[4], 0.3704 µM	1.07
[4], 1.111 µM	1.03
[4], 3.333 µM	1.08
[4], 10 µM	1.04
[5], 0.00017 µM	1.03
[5], 0.00051 µM	1.03
[5], 0.00152 µM	1.04
[5], 0.00457 µM	1.04
[5], 0.01372 µM	1.02
[5], 0.04115 µM	1.03
[5], 0.1235 µM	1.03
[5], 0.3704 µM	1.05
[5], 1.111 µM	1.04
[5], 3.333 µM	1.08
[5], 10 µM	1.08
[6], 0.00017 µM	0.9637
[6], 0.00051 µM	0.979
[6], 0.00152 µM	0.998
[6], 0.00457 µM	0.982
[6], 0.01372 µM	1
[6], 0.04115 µM	0.99
[6], 0.1235 µM	0.992
[6], 0.3704 µM	1.021
[6], 1.111 µM	1.02
[6], 3.333 µM	0.974
[6], 10 µM	0.9313
[7], 0.00017 µM	0.978
[7], 0.00051 µM	0.989
[7], 0.00152 µM	1.04
[7], 0.00457 µM	1.03
[7], 0.01372 µM	0.996
[7], 0.04115 µM	0.998
[7], 0.1235 µM	0.999
[7], 0.3704 µM	1.02
[7], 1.111 µM	1.012
[7], 3.333 µM	1.02
[7], 10 µM	0.983
[8], 0.00017 µM	1
[8], 0.00051 µM	1.01
[8], 0.00152 µM	1.03
[8], 0.00457 µM	1.04
[8], 0.01372 µM	1.04
[8], 0.04115 µM	1
[8], 0.1235 µM	1.03
[8], 0.3704 µM	1.04
[8], 1.111 µM	1.06
[8], 3.333 µM	1.03
[8], 10 µM	0.944
[9], 0.00017 µM	1.11
[9], 0.00051 µM	1.14
[9], 0.00152 µM	1.09
[9], 0.00457 µM	1.13
[9], 0.01372 µM	1.13
[9], 0.04115 µM	1.1
[9], 0.1235 µM	1.11
[9], 0.3704 µM	1.15
[9], 1.111 µM	1.14
[9], 3.333 µM	1.12
[9], 10 µM	1.08
[10], 0.00017 µM	0.999
[10], 0.00051 µM	1.02
[10], 0.00152 µM	1.01
[10], 0.00457 µM	1.01
[10], 0.01372 µM	0.975
[10], 0.04115 µM	0.95
[10], 0.1235 µM	0.979
[10], 0.3704 µM	0.997
[10], 1.111 µM	1.04
[10], 3.333 µM	1.03
[10], 10 µM	0.987
[11], 0.00017 µM	1.048
[11], 0.00051 µM	1.037
[11], 0.00152 µM	1.05
[11], 0.00457 µM	1.05
[11], 0.01372 µM	1.05
[11], 0.04115 µM	1.034
[11], 0.1235 µM	1.02
[11], 0.3704 µM	1.02
[11], 1.111 µM	1.02
[11], 3.333 µM	1.01
[11], 10 µM	0.955
[12], 0.00017 µM	1.01
[12], 0.00051 µM	1.01
[12], 0.00152 µM	1.03
[12], 0.00457 µM	1.04
[12], 0.01372 µM	1.01
[12], 0.04115 µM	1.01
[12], 0.1235 µM	1
[12], 0.3704 µM	1.05
[12], 1.111 µM	1.08
[12], 3.333 µM	1.07
[12], 10 µM	1.05

Reference: the supplement of paper PMC10883282
